In patent US20100137398A1, “USE OF HDAC INHIBITORS FOR THE TREATMENT OF GASTROINTESTINAL CANCERS” (NOVARTIS AG, priority 2007, published 2010):

What was measured:
Test in all cases: Monolayer growth inhibition assay (MTT/MTS)
Type in all cases: cell-based
[1] = system: CaCo2 colon cancer cell line
Source text: (§1) The MTT is a colorimetric assay to determine the cell proliferation rate. The yellow tetrazolium MTT (3-(4, 5-dimethylthiazolyl-2)-2, 5-diphenyltetrazolium bromide) is reduced, by metabolically active cells, in part by the action of dehydrogenase enzymes, to generate reducing equivalents such as NADH and NADPH. The resulting intracellular purple formazan can be solubilized and quantified by spectrophotometric means. The signals produced is directly proportional to the cell numbers. Describing the MTT assay in detail, experiments were done using six-point or 9 point drug titrations in multi-well tissue culture dishes, with outer rows left empty. Cells were suspended in complete media at densities of between 10^3 and 10^4 cell/ml, respectively, and added per well. The appropriate medium (200 μl) was then added. Twenty-four hours later, 10 μl of MTS solution, were added to one plates to determine the activity at the time of compound addition (T0). This plate was incubated at 37° for 4 hours and the optical density was measured on a Molecular Devices Thermomax at 490 nm using the Softmax program. The T0 plate served as a reference for initial activity at the beginning of the experiment.
(§2) Compound addition began 24 hours after seeding, the same time as the T0 determination. Serial dilutions at 4-fold 2-fold, 1-fold, 0.5-fold, 0.25-fold and 0.125-fold of previously determined IC50 values of each compound were made in a 96-deep well plate with the highest concentrations on the edge of the plate. Each of the six dilutions were added in triplicate and complete medium was added to the empty outer rows, without cells. The compounds were added to the plates singly or in combination with Compound III (LBH589). The plates were incubated at 37° C. for 72 hours from seeding. The MTS solution was added (as for the T0 plate) and read four hours later. In order to analyze the data, the average value of media alone (background) was subtracted from each experimental well and the triplicate values were averaged for each compound dilution. The following formulas were used to calculate percent growth.
(§3) If X>T0, % Growth=100×(X−T0)/(GC−T0))
(§4) If X<T0, % Growth=100×(X−T0)/T0)
(§5) T0=average value of T0 minus background
(§6) GC=average value of untreated cells (in triplicate) minus background X=average value, of compound treated cells (in triplicate) minus background
(§7) IC50 the concentration of LBH589 required to inhibit cell growth by 50% and LD50s the concentration required to reduce cell number (kill cells) to 50% the original innoculum were determined. The “% Growth” was plotted against compound concentration and used to calculate IC50s and LD50s, employing the user-defined spline function in Microsoft Excel.
(§8) Colon cancer cell lines were treated with DMSO vehicle control or varying concentrations of LBH589 for 3 days. Cell proliferation was measured on the day of cell plating and on the third day post-treatment. IC50 and LD50 values were calculated as described above.

[2] = system: Colo206F colon cancer cell line
Source text: as §1, §2, §3, §4, §5, §6, §7, §8

[3] = system: Colo320DM colon cancer cell line
Source text: as §1, §2, §3, §4, §5, §6, §7, §8

[4] = system: Colo320HSR colon cancer cell line
Source text: as §1, §2, §3, §4, §5, §6, §7, §8

[5] = system: Colo678 colon cancer cell line
Source text: as §1, §2, §3, §4, §5, §6, §7, §8

[6] = system: Colo741 colon cancer cell line
Source text: as §1, §2, §3, §4, §5, §6, §7, §8

[7] = system: HCT116 Bax −/− colon cancer cell line
Source text: as §1, §2, §3, §4, §5, §6, §7, §8

[8] = system: HT29 colon cancer cell line
Source text: as §1, §2, §3, §4, §5, §6, §7, §8

[9] = system: HT55 colon cancer cell line
Source text: as §1, §2, §3, §4, §5, §6, §7, §8

[10] = system: KM20L2 colon cancer cell line
Source text: as §1, §2, §3, §4, §5, §6, §7, §8

[11] = system: LOVO colon cancer cell line
Source text: as §1, §2, §3, §4, §5, §6, §7, §8

[12] = system: LS1034 colon cancer cell line
Source text: as §1, §2, §3, §4, §5, §6, §7, §8

[13] = system: MDST8 colon cancer cell line
Source text: as §1, §2, §3, §4, §5, §6, §7, §8

[14] = system: SNU-C1 colon cancer cell line
Source text: as §1, §2, §3, §4, §5, §6, §7, §8

[15] = system: SW1116 colon cancer cell line
Source text: as §1, §2, §3, §4, §5, §6, §7, §8

[16] = system: SW403 colon cancer cell line
Source text: as §1, §2, §3, §4, §5, §6, §7, §8

[17] = system: SW48 colon cancer cell line
Source text: as §1, §2, §3, §4, §5, §6, §7, §8

[18] = system: SW837 colon cancer cell line
Source text: as §1, §2, §3, §4, §5, §6, §7, §8

[19] = system: T84 colon cancer cell line
Source text: as §1, §2, §3, §4, §5, §6, §7, §8

[20] = system: WiDr colon cancer cell line
Source text: as §1, §2, §3, §4, §5, §6, §7, §8

[21] = 3 days, concentration reducing cell number to 50% of original inoculum
[22] = Homo sapiens, 72 h, 3 days treatment

Cc1[nH]c2ccccc2c1CCNCc1ccc(/C=C/C(=O)NO)cc1 [LBH589, N-hydroxy-3-[4-[[[2-(2-methyl-1H-indol-3-yl)ethyl]-amino]methyl]phenyl]-2E-2-propenamide]
LD50 ([1]; CaCo2, 3 days, concentration reducing cell number to 50% of original inoculum): 45.55 nM
IC50 ([1]; Homo sapiens, Caco-2, 72 h, CaCo2, 3 days treatment): 13.8 nM
LD50 [2, 21]: >10 µM
IC50 ([2]; COLO 206F, 72 h, 3 days treatment): 10.1 nM
LD50 [3, 21]: 1103.37 nM
IC50 ([3]; Homo sapiens, COLO 320DM, 72 h, 3 days treatment): 29.5 nM
LD50 [4, 21]: >10 µM
IC50 ([4]; Homo sapiens, COLO-320-HSR, 72 h, 3 days treatment): 13.8 nM
LD50 ([5]; Colo678, 3 days, concentration reducing cell number to 50% of original inoculum): 45.52 nM
IC50 ([5]; Homo sapiens, COLO-678, 72 h, Colo678, 3 days treatment): 5.6 nM
LD50 ([6]; Colo741, 3 days, concentration reducing cell number to 50% of original inoculum): 33.73 nM
IC50 ([6]; Homo sapiens, COLO-741, 72 h, Colo741, 3 days treatment): 9.22 nM
LD50 [7, 21]: >10 µM
IC50 ([7]; Homo sapiens, HCT-116, 72 h, 3 days treatment): 1.73 nM
LD50 ([8]; HT29, 3 days, concentration reducing cell number to 50% of original inoculum): 70.23 nM
IC50 ([8]; Homo sapiens, HT-29, 72 h, HT29, 3 days treatment): 2.83 nM
LD50 ([9]; HT55, 3 days, concentration reducing cell number to 50% of original inoculum): 334.52 nM
IC50 ([9]; Homo sapiens, 72 h, HT55, 3 days treatment): 8.21 nM
IC50 ([10]; Homo sapiens, KM-20L2, 72 h, KM20L2, 3 days treatment): 14.6 nM
LD50 ([10]; KM20L2, 3 days, concentration reducing cell number to 50% of original inoculum): 16.95 nM
LD50 [11, 21]: 52.01 nM
IC50 [11, 22]: 4.37 nM
IC50 ([12]; Homo sapiens, LS-1034, 72 h, LS1034, 3 days treatment): 76.7 nM
LD50 ([12]; LS1034, 3 days, concentration reducing cell number to 50% of original inoculum): 227.83 nM
IC50 ([13]; 72 h, MDST8, 3 days treatment): 4.87 nM
LD50 ([13]; MDST8, 3 days, concentration reducing cell number to 50% of original inoculum): 48.44 nM
IC50 ([14]; Homo sapiens, 72 h, SNU-C1, 3 days treatment): 4.51 nM
LD50 ([14]; SNU-C1, 3 days, concentration reducing cell number to 50% of original inoculum): 26.07 nM
IC50 ([15]; Homo sapiens, SW 1116, 72 h, SW1116, 3 days treatment): 2.28 nM
LD50 ([15]; SW1116, 3 days, concentration reducing cell number to 50% of original inoculum): 26.93 nM
IC50 ([16]; Homo sapiens, SW-403, 72 h, SW403, 3 days treatment): 2.03 nM
LD50 ([16]; SW403, 3 days, concentration reducing cell number to 50% of original inoculum): 9.84 nM
IC50 ([17]; Homo sapiens, 72 h, SW48, 3 days treatment): 1.29 nM
LD50 ([17]; SW48, 3 days, concentration reducing cell number to 50% of original inoculum): 13.09 nM
IC50 ([18]; Homo sapiens, 72 h, SW837, 3 days treatment): 0.66 nM
LD50 ([18]; SW837, 3 days, concentration reducing cell number to 50% of original inoculum): 11.46 nM
IC50 ([19]; 72 h, T84, 3 days treatment): 2.16 nM
LD50 ([19]; T84, 3 days, concentration reducing cell number to 50% of original inoculum): 32.82 nM
LD50 [20, 21]: 41.86 nM
IC50 [20, 22]: 4.39 nM
